# Reference: patent US20020026053A1, “Novel 3-(substituted) -2- indolinones compounds and use thereof as inhibitors of protein kinase activity” (priority 1997, published 2002)
# Target: T1, EGFR (Homo sapiens, UniProt P00533)
# T1 construct: endogenous in cells; host or cells: A431 cells (lysate, captured with SUMO1 anti-EGFR antibody)
# Assay: Biochemical EGFR Assay
# Parameters: concentration or dose not given beside the values
# Procedure: This assay measures the in vitro kinase activity of EGFR using ELISA.
# 1. Corning 96-well Elisa plates (Corning Catalog No. 25805-96).
# 2. SUMO1 monoclonal anti-EGFR antibody (Biochemistry Lab, SUGEN, Inc.).
# 3. PBS (Dulbecco's Phosphate-Buffered Saline, Gibco Catalog No. 450-1300EB).
# 6. A431 cell lysate (Screening Lab, SUGEN, Inc.)
# 9. Adenosine-5′-triphosphate (ATP, from Equine muscle, Sigma Cat. No. A-5394).
# Prepare a 1.0 mM solution in dH2O. This reagent should be made up immediately prior to use and kept on ice.
# Prepare a 1.0 M stock solution in dH2O.
# 11. ATP/MnCl2 phosphorylation mix
# This reagent should be prepared immediately before use and kept on ice
# 12. NUNC 96-well V bottom polypropylene plates (Applied Scientific Cat. No. AS-72092).
# 13. Ethylenediaminetetraacetic acid (EDTA)
# Prepare 200 mM working solution in dH2O. Adjust to pH 8.0 with 10 N NaOH.
# 14. Rabbit polyclonal anti-phosphotyrosine serum (Biochemistry Lab, SUGEN, Inc.)
# 15. Goat anti-rabbit IgG peroxidase conjugate (Biosource Cat. No. ALI0404)
# 16. ABTS (2,2′-azino-bis(3-ethylbenzthiazoline-6-sulfonic acid), Sigma Cat. No. A-1888).
# Mix first two ingredients in about 900 ml dH2O, adjust pH to 4.0 with phosphoric acid. Add ABTS, cover, let sit about 0.5 hr., filter. The solution should be kept in the dark at 4° C. until ready to use.
# 17. Hydrogen peroxide 30% solution (Fisher Cat. No. H325)
# Mix 15 ml ABTS solution and 2.0 μl H2O2. Prepare 5 minutes before use.
# 1. Coat Corning 96 well ELISA plates with 0.5 μg SUMO1 in 100 μl PBS per well, store overnight at 4° C.
# 2. Remove unbound SUMO1 from wells by inverting plate to remove liquid. Wash 1× with dH2O. Pat the plate on a paper towel to remove excess liquid.
# 3. Add 150 μl of Blocking Buffer to each well. Incubate for 30 min. at room temperature with shaking.
# 4. Wash plate 3× with deionized water, then once with TBST. Pat plate on a paper towel to remove excess liquid and bubbles.
# 5. Dilute lysate in PBS (7 μg lysate/100 μl PBS)
# 6. Add 100 μl of diluted lysate to each well. Shake at room temperature for 60 min.
# 7. Wash plates as described in 4, above.
# 8. Add 120 μl TBS to ELISA plate containing captured EGFR.
# 9. Dilute test compound 1:10 in TBS in 96-well polypropylene plates (ie. 10 μl compound+90 μl TBS).
# 10. Add 13.5 μl diluted test compound to ELISA plate.
# 11. Incubate for 30 minutes while shaking at room temperature.
# 13. After 5 minutes, stop reaction by adding 16.5 μl of 200 mM EDTA (pH 8.0) to each well, shaking continuously. After the EDTA has been added, shake for 1 min.
# 14. Wash 4× with deionized water, twice with TBST.
# 15. Add 100 μl anti-phosphotyrosine (1:3000 dilution in TBST) per well. Incubate 30-45 min. at room temperature, with shaking.
# 16. Wash as described in 4, above.
# 17. Add 100 μl Biosource Goat anti-rabbit IgG peroxidase conjugate (1:2000 dilution in TBST) to each well. Incubate 30 min. at room temperature, with shaking.
# 18. Wash as described in 4, above.
# 19. Add 100 μl of ABTS/H2O2 solution to each well.
# 20. Incubate 5 to 10 minutes with shaking. Remove any bubbles.
# 21. If necessary stop reaction with the addition of 100 μl 0.2 M HCl per well.
# 22. Read assay on Dynatech MR7000 ELISA reader. Test Filter: 410 nM Reference Filter: 630 nM
# T1 sequence (P00533 25-1210): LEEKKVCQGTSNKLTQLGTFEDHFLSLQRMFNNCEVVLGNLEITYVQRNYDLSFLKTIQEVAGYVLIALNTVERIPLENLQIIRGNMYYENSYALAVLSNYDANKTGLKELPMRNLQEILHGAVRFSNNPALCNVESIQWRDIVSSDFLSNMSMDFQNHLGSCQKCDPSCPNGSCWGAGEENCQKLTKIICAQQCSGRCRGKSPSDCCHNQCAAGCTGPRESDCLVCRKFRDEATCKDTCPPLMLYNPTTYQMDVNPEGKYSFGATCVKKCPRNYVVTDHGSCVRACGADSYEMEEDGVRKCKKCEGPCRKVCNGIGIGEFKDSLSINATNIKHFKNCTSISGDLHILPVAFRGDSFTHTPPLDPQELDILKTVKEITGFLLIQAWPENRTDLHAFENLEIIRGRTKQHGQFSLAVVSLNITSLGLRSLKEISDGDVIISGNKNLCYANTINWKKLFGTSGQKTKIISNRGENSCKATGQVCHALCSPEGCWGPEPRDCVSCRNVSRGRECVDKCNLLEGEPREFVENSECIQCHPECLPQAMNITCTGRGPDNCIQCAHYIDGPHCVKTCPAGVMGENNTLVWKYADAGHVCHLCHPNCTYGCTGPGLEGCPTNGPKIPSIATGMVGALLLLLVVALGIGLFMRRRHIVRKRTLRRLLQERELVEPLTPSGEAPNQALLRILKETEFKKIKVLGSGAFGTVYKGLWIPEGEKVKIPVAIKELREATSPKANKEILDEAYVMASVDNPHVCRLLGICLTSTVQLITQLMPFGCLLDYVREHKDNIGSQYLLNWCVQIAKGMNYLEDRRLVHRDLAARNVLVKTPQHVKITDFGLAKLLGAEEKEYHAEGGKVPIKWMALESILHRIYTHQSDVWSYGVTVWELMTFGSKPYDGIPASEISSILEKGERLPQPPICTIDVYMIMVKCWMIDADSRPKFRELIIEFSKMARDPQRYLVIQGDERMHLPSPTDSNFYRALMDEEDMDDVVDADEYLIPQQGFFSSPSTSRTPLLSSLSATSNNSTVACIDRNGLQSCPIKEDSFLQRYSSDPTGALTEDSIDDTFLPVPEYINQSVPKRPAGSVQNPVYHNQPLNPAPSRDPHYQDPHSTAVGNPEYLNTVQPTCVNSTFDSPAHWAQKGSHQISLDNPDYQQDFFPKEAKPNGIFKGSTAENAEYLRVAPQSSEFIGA
row,Structure (SMILES),Biochem EGFR % Inhibition (P.167) [%]
1,Cc1c(Br)cc(Br)c2c1C(=C1C(=O)N(C)c3ccccc31)C(=O)N2 [10731/H10],3.5
2,Cc1c(Br)cc(Br)c2c1C(=Cc1cccnc1)C(=O)N2 [10729/H08],8.7
3,COc1c(Br)cc(C=C2C(=O)Nc3c(Br)cc(Br)c(C)c32)cc1C(C)(C)C [10732/H07],−15.3
4,Cc1cc(C=C2C(=O)Nc3c(Br)cc(Br)c(C)c32)cc(C)c1OCc1ccccc1 [10733/H07],−6.2
5,Cc1cn(C)cc1C=C1C(=O)Nc2c(Br)cc(Br)c(C)c21 [10726/H06],−9.2
6,Cc1c(Br)cc(Br)c2c1C(=CC(c1cccs1)C(F)(F)F)C(=O)N2 (centres unmarked) [10732/H02],13.0
7,Cc1c(Br)cc(Br)c2c1C(=Cc1ccc(-c3ccccc3Cl)o1)C(=O)N2 [10730/H07],−3.2
8,Cc1cc2occ(C=C3C(=O)Nc4c(Br)cc(Br)c(C)c43)c(=O)c2cc1C [10731/H03],−1.5
9,COc1c(C(C)C)cc(C=C2C(=O)Nc3c(Br)cc(Br)c(C)c32)cc1C(C)C [10732/H03],1.4
10,Cc1c(Br)cc(Br)c2c1C(=Cc1coc3ccc(C(C)C)cc3c1=O)C(=O)N2 [10731/H05],−3.6
11,Cc1[nH]c(C=C2C(=O)Nc3c(Br)cc(Br)c(C)c32)c(Br)c1Br [10717/H11],55.6
12,Cc1c(Br)cc(Br)c2c1C(=Cc1coc3ccccc3c1=O)C(=O)N2 [10727/H07],−17.3
13,Cc1c(Br)cc(Br)c2c1C(=Cc1cccc(C(F)(F)F)c1F)C(=O)N2 [10728/H07],−25.8
14,COc1ccc2ccccc2c1C=C1C(=O)Nc2c(Br)cc(Br)c(C)c21 [10729/H02],−10.7
15,CSc1ccc(C=C2C(=O)Nc3c(Br)cc(Br)c(C)c32)cc1 [10729/H04],−4.4
16,CC(=O)n1cc(C=C2C(=O)Nc3c(Br)cc(Br)c(C)c32)c2ccccc21 [10730/H05],−20.1
17,Cc1c(Br)cc(Br)c2c1C(=Cc1ccncc1)C(=O)N2 [10729/H09],8.0
18,COc1cccc(O)c1C=C1C(=O)Nc2c(Br)cc(Br)c(C)c21 [10717/H10],0.5
19,Cc1c(Br)cc(Br)c2c1C(=Cc1cc([N+](=O)[O-])ccc1O)C(=O)N2 [10733/H10],−3.1
20,Cc1ccsc1C=C1C(=O)Nc2c(Br)cc(Br)c(C)c21 [10729/H05],−4.4
21,Cc1c(Br)cc(Br)c2c1C(=Cc1cc(C(C)C)c(Oc3ccccc3)c(C(C)C)c1)C(=O)N2 [10732/H04],−0.7
22,Cc1c(Br)cc(Br)c2c1C(=Cc1cc(Cl)c(OCc3ccccc3)c(C(C)(C)C)c1)C(=O)N2 [10732/H10],−21.3
23,Cc1c(Br)cc(Br)c2c1C(=Cc1ccc(C#N)cc1)C(=O)N2 [10727/H09],−6.1
